Test results reported in ChEMBL document CHEMBL1201862, “PubChem BioAssay data set” (2004).
Active and inactive are the calls of the source.

Key:
[1] = target: T1, Endoplasmic reticulum aminopeptidase 1 (Homo sapiens, UniProt Q9NZ08); test: inhibition of human ERAP1 enzyme activity – biochemical, cherry-pick, set 2, plate reader, dose response (AID 743314)
[2] = target: T1, Endoplasmic reticulum aminopeptidase 1; test: blocking ERAP1 cleavage of leucine-AMC substrate – biochemical, fluorescence plate reader, dry powder, dose response (AID 1117292); assay type: functional
[3] = system: Vero; test: cells; assay type: functional, cell-based; settings: Chlorocebus sabaeus
[4] = target: Heat shock protein HSP 90-alpha (Homo sapiens, UniProt P07900); assay type: functional, organism-based
[5] = SNU-C1 cell viability reduction, dose response, CellTiter-Glo luminescence (AID 1117323); assay type: functional, cell-based
[6] = system: Vero; test: cells; assay type: functional; settings: Chlorocebus sabaeus
[7] = RKO cell viability reduction, dose response, CellTiter-Glo luminescence (AID 1117322); assay type: functional
[8] = CellTiter-Glo luminescence survival assay, SW480 colon tumor line, concentration-response curve, half-maximal inhibitory concentration (AID 1117338); assay type: functional
[9] = target: HSP90 (Plasmodium falciparum 3D7, UniProt Q8IL32); assay type: functional, organism-based
[10] = cytotoxicity toward Colo320 cells – cell-based, CellTiter-Glo luminescence, IC50, dose response (AID 1117334); assay type: functional; settings: COLO 320
[11] = cytotoxicity toward HT-29 cells – cell-based, CellTiter-Glo luminescence, IC50, dose response (AID 1117330); assay type: functional
[12] = cytotoxicity toward HCT116 cells – cell-based, CellTiter-Glo luminescence, IC50, dose response (AID 1117332); assay type: functional; settings: HCT-116
[13] = HCT116 cell viability decrease, GSK3B pretreatment – CellTiter-Glo, IC50, dose response (AID 1117339); assay type: functional; settings: HCT-116
[14] = Reduced DLD-1 viability, concentration-response, CellTiter-Glo luminescence (AID 1117352); assay type: functional
[15] = Dd2 parasite growth inhibition in erythrocytes – SYBR Green, dry powder samples, set 4, dose response (AID 1159572); assay type: functional, cell-based
[16] = target: E3 ubiquitin-protein ligase UHRF1 (Homo sapiens, UniProt Q96T88); test: Counterscreen for inhibitors of 5-meCpG-binding domain protein 2 (MBD2): TRFRET-based biochemical high throughput dose response assay to identify inhibitors of binding of ubiquitin-like with PHD and ring finger domains 1 (UHRF1) to methylated oligonucleotide.
[17] = target: T2, Protein RecA (Mycobacterium tuberculosis, UniProt P9WHJ3); test: Fluorescence Cell-Free Homogeneous Dose Retest to Identify Inhibitors of RecA-Intein Splicing Activity. [Related pubchem assays (depositor defined):AID2097, AID2223, AID489010, AID492950]; assay type: functional
T2 sequence (P9WHJ3 whole entry): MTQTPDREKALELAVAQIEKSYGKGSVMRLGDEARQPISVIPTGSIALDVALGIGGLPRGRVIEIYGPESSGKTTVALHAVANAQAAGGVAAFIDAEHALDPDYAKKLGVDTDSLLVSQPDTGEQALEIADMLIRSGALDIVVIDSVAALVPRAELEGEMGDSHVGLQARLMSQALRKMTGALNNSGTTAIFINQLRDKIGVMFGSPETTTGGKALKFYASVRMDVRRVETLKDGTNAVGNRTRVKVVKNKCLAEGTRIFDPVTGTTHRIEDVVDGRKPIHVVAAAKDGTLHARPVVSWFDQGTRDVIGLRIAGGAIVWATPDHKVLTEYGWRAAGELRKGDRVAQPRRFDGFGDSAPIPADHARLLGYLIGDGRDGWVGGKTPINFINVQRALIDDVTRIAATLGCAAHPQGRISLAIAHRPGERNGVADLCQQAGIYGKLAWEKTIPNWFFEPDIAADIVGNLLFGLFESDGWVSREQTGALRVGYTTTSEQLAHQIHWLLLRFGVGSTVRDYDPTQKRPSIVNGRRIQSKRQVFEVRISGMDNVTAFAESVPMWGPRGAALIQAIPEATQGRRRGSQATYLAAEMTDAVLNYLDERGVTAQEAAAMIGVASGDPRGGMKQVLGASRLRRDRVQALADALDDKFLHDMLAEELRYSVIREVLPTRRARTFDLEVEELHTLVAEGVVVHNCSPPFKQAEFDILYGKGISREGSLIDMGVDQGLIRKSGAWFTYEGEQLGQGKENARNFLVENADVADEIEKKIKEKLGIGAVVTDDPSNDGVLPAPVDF

[18] = microbe, parasite or virus in culture; assay type: functional; settings: Mycobacterium tuberculosis
[19] = target: T3, Tyrosyl-DNA phosphodiesterase 2 (Homo sapiens, UniProt O95551); test: potency against TDP2 phosphodiesterase activity – biochemical, epi absorbance, IC50, dose response (AID 743297)
T3 sequence (O95551 whole entry): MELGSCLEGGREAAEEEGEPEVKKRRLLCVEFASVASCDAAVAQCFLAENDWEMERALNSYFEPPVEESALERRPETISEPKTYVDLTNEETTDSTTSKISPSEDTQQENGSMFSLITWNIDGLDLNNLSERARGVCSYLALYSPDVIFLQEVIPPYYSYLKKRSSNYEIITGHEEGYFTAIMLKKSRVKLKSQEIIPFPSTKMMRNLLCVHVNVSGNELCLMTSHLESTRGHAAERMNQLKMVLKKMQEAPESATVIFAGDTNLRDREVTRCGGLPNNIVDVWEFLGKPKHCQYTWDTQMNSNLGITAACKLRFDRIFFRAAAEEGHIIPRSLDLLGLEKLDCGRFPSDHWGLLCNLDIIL

[20] = target: Mitochondrial peptide methionine sulfoxide reductase (Bos taurus, UniProt P54149); test: Absorbance-based biochemical high throughput dose response assay for activators of Methionine sulfoxide reductase A (MsrA).; assay type: functional
[21] = NIH3T3 cell viability loss – ATP luminescence, mouse fibroblasts, counter-screen, dose response (AID 2010); assay type: functional, cell-based;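 also: cells exposed to compound for about 90 hours before reading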
[22] = Trypanosoma cruzi growth suppression in host cells – NIH3T3 host cells, beta-gal luminescence, confirmation (AID 2044); assay type: functional, cell-based;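 also: intracellular parasites grown in NIH/3T3 mouse fibroblasts as host cells; luminescent beta-galactosidase reporter signal from transgenic T. cruzi replicating inside host cells; inhibitors lower the luminescence signal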
[23] = target: T4, Replicative DNA helicase DnaB (Mycobacterium tuberculosis, UniProt P9WMR3); test: DnaB intein splicing inhibitors, dose response, biochemical, cell-free fluorescence (AID 449749); assay type: functional
T4 sequence (P9WMR3 whole entry): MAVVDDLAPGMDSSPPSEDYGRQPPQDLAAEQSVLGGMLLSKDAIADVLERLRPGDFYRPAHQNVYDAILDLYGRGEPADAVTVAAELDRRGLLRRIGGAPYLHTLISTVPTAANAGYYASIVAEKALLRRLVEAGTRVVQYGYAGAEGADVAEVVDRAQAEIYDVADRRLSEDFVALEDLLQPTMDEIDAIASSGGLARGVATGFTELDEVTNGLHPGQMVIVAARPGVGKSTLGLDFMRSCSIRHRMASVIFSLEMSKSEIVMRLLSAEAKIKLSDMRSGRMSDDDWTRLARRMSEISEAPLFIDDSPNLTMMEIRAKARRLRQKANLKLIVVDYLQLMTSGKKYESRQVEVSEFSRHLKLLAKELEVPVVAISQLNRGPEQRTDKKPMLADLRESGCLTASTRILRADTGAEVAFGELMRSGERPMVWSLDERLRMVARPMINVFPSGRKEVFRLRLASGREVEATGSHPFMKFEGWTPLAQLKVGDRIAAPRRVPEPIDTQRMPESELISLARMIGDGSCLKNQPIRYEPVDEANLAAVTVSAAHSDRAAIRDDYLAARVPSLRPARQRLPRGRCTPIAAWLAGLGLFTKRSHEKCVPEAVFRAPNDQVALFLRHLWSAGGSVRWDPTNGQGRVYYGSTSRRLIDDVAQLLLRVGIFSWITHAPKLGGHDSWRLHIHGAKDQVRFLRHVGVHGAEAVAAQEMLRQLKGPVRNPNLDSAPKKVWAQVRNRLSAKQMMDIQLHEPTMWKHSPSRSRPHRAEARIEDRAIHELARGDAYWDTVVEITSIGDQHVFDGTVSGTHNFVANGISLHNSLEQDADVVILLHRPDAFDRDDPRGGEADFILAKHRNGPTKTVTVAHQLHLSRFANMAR

[24] = target: Caspase-6 (Homo sapiens, UniProt P55212); test: inhibition of CASP6 peptide cleavage – biochemical, VEID-R110 fluorescence, cherry-pick, dose response (AID 720632)
[25] = target: T5, Polyadenylate-binding protein 1 (Homo sapiens, UniProt P11940); test: MLLE binding blockers, Cy5 peptide tracer – biochemical, fluorescence polarization, Cy5-PAM2 peptide, secondary, miRNA deadenylation inhibitor project, dose response (AID 602260); assay type: functional; settings: read-out: IC50_Mean
[26] = target: T5, Polyadenylate-binding protein 1; test: MLLE domain peptide-binding blockers, IC50 – biochemical, fluorescence polarization, FITC-PAM2 peptide, dose response (AID 602259); assay type: functional; settings: read-out: IC50_Mean
[27] = bead-based luminescence quenchers, dual-tagged ARNT – biochemical, AlphaScreen, cherry-pick, artefact control for ARNT-TACC3 interaction inhibitor project, dose response (AID 651705); assay type: functional;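 also: AlphaScreen bead proximity signal that flags compounds interfering with the detection technology; potency reflects signal decrease which marks the compound as an assay artifact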
[28] = target: Matrix metalloproteinase-14 (Homo sapiens, UniProt P50281); test: Dose Response confirmation of uHTS hits for a small molecule inhibitors of MT1-MMP activation in a fluorescence assay set 1.; assay type: functional

T5 sequence (P11940 whole entry, the tested form may be a part): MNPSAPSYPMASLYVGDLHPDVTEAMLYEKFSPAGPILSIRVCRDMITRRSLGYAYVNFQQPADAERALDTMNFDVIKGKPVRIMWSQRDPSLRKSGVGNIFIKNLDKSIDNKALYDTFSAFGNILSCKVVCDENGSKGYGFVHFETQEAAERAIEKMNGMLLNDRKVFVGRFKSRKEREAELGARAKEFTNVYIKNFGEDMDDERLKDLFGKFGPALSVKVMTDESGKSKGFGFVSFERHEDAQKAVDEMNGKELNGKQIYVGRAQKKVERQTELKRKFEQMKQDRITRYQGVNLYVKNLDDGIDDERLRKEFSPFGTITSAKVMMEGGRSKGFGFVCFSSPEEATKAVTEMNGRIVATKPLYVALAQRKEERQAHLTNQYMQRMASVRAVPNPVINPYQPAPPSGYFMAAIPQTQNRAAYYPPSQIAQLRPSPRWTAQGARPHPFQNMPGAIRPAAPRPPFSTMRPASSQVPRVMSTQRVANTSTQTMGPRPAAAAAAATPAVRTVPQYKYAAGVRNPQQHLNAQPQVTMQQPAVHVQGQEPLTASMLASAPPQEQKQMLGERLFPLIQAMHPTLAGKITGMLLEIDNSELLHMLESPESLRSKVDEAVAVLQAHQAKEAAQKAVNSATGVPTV
T1 sequence (Q9NZ08 whole entry): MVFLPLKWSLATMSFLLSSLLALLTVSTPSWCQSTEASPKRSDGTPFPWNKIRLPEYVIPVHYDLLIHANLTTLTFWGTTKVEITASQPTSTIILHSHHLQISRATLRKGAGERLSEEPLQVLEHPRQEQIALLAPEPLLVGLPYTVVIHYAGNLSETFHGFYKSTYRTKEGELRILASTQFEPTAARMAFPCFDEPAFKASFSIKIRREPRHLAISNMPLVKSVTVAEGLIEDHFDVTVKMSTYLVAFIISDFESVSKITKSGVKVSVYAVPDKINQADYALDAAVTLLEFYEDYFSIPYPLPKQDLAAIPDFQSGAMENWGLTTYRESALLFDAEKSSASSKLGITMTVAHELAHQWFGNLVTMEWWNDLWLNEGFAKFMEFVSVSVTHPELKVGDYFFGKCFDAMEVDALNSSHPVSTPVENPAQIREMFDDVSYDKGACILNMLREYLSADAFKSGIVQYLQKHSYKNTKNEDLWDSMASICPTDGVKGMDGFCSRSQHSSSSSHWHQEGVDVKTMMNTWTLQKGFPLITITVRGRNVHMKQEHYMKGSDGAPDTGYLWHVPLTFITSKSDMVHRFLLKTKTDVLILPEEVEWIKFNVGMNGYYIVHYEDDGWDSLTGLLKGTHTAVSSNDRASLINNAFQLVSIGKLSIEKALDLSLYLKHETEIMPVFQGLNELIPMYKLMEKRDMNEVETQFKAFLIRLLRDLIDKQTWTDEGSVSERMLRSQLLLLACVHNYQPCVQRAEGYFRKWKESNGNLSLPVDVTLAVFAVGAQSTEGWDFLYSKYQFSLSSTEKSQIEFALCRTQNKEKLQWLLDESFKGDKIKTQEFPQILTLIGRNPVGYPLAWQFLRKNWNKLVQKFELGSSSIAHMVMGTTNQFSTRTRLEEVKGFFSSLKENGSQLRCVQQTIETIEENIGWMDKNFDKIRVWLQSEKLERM
E3 ubiquitin-protein ligase UHRF1, sequence (Q96T88 whole entry, the tested form may be a part): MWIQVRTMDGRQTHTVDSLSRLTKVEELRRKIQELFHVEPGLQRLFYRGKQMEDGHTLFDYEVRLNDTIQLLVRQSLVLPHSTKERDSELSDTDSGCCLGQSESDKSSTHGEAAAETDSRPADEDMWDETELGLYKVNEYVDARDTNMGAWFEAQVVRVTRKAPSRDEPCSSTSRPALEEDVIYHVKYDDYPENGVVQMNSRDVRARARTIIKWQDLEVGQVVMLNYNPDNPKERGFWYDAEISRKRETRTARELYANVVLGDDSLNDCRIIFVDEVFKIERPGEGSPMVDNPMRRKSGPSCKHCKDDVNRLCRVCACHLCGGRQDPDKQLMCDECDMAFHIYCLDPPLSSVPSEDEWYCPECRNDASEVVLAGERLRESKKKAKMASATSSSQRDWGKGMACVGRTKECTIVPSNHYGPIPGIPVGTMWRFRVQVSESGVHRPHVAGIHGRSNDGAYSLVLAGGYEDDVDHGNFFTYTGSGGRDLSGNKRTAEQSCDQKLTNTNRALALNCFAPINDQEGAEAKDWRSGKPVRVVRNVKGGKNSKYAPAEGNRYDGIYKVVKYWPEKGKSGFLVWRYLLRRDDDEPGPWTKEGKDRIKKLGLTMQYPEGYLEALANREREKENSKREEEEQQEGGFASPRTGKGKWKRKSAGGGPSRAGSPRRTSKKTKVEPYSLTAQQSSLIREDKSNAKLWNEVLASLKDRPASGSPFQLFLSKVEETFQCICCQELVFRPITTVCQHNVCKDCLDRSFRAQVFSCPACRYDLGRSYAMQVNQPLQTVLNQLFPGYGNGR
Mitochondrial peptide methionine sulfoxide reductase, sequence (P54149 whole entry): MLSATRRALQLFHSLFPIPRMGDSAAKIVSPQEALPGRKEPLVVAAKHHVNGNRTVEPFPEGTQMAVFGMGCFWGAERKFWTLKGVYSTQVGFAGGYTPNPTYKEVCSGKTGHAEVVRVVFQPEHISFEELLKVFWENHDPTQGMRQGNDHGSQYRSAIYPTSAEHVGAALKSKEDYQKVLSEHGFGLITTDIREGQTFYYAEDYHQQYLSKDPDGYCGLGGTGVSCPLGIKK
Caspase-6, sequence (P55212 24-179 limits assumed): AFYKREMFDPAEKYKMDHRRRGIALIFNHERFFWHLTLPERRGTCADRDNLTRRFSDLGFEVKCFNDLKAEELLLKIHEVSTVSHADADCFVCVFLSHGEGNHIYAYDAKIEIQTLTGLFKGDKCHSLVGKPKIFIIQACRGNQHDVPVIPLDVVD
Caspase-6, sequence (P55212 194-293 limits assumed): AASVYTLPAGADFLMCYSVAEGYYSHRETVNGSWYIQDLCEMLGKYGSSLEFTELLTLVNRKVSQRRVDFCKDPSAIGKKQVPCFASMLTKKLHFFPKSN
HSP90, sequence (Q8IL32 whole entry): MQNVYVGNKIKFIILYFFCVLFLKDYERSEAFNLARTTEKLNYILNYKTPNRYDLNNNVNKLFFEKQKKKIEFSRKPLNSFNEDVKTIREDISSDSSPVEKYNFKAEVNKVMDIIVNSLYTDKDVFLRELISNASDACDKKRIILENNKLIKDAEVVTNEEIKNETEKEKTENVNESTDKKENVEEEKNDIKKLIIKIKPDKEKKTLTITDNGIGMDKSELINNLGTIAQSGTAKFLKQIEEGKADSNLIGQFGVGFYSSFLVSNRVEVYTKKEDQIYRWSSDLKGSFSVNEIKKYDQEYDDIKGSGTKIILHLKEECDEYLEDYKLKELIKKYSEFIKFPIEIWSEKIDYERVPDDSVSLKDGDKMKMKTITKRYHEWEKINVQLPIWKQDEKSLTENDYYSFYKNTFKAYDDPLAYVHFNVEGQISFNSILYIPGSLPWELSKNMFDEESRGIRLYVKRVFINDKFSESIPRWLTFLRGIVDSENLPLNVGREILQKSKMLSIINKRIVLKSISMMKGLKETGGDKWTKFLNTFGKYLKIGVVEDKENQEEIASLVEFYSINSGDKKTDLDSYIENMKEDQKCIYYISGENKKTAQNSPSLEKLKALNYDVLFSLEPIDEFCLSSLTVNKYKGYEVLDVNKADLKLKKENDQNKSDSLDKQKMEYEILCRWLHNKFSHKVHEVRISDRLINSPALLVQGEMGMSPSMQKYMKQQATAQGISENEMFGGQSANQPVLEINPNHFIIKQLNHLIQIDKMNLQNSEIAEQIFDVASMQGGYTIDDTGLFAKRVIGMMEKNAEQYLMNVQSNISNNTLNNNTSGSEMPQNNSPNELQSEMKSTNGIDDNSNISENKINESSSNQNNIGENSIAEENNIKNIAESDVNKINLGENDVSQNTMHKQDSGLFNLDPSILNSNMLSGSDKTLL

N=C(NCCc1c[nH]c2ccccc12)NS(=O)(=O)c1cc(F)ccc1F
AC50 [1]: 6.09 µM (active)
AC50 [2]: 59.9 µM (active)

Oc1c(Br)cc(Br)c2cccnc12 [BROXYQUINOLINE]
IC50 [3]: > 25 µM (active)
AC50 [4]: 0.7 µM (active)
IC50 [5]: 0.366 µM (active)
CC50 [6]: 18.7 µM (active)
IC50 [7]: 0.163 µM (active)
IC50 [8]: 0.132 µM (active)
AC50 [9]: 0.373 µM (active)
IC50 [10]: 0.114 µM (active)
IC50 [11]: 5.25 µM (inactive)
IC50 [12]: 0.193 µM (active)
IC50 [13]: 0.183 µM (active)
IC50 [14]: 0.157 µM (active)

COc1ccc2c3c([nH]c2c1)[C@H](CO)N(C(C)=O)CC31CCN(S(=O)(=O)c2ccccc2)CC1
AC50 [15]: 9.86 µM (active)

CNc1ccc2nc3ccccc3[n+](C)c2c1.[O-][Cl+3]([O-])([O-])[O-]
IC50 [16]: > 43.8 µM (inactive)
EC50 [17]: 2.37 µM (active)
CC50 [18]: 18.3 µM (active)
IC50 [19]: > 128 µM (inactive)
EC50 [20]: 2.13 µM (active)
EC50 [21]: > 60 µM (not active)
EC50 [22]: 0.689 µM (active)
AC50 [23]: > 380 µM (inactive)
AC50 [24]: 2.79 µM (active)
IC50 [25]: 35.1 µM (inactive)
IC50 [26]: 18 µM (active)
AC50 [27]: 133 µM (active)
IC50 [28]: 14 µM (active)
